Laboratory results reported in ChEMBL document CHEMBL1132787, “Novel heterocycles as selective alpha1-adrenergic receptor antagonists” (Bioorg Med Chem Lett, 2000).

Legend:
[1] = molecular target: Adrenergic receptors; alpha-1 A & B (Homo sapiens) (UniProt P35348+P35368); test: Ratio of binding affinity of compound to human adrenergic receptor alpha-1b to that of human adrenergic receptor alpha-1a; format: protein assay
[2] = molecular target: T1, Alpha-1B adrenergic receptor (Homo sapiens, UniProt P35368); test: Compound was evaluated for its binding affinity towards COS cell membrane expressing the human Alpha-1B adrenergic receptor; format: cell membranes
T1 sequence (P35368 whole entry): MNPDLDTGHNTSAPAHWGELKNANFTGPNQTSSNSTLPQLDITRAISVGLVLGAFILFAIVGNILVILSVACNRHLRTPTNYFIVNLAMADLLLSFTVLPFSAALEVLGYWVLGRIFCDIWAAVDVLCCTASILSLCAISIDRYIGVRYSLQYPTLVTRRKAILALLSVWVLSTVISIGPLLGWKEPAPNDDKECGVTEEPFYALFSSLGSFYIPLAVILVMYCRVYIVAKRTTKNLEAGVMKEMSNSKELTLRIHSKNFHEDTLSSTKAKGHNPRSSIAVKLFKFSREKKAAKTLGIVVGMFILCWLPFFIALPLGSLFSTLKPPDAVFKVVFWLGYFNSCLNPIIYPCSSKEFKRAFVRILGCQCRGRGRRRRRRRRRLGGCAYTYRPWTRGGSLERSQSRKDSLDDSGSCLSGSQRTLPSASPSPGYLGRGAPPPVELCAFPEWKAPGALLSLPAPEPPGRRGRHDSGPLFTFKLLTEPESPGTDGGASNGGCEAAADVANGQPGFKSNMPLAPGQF

[3] = molecular target: T2, Alpha-1A adrenergic receptor (Homo sapiens, UniProt P35348); test: Compound was evaluated for its binding affinity to COS cell membrane expressing the human Alpha-1A adrenergic receptor; format: cell membranes
T2 sequence (P35348 whole entry): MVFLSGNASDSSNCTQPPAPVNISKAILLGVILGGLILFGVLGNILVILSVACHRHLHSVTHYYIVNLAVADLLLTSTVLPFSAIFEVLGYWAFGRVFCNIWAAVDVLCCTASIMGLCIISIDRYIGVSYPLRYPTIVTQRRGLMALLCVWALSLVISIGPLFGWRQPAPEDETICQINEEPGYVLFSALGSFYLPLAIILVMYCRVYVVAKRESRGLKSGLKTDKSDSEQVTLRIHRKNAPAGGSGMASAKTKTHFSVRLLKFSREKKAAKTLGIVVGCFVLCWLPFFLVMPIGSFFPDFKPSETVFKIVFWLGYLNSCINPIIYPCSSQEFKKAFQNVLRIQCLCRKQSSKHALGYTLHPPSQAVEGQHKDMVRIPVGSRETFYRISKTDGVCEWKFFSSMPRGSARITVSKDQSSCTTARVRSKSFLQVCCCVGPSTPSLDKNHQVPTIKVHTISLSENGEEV

[4] = molecular target: Alpha adrenergic receptor (1a and 1d) (Homo sapiens) (UniProt P35348+P25100); test: Ratio of binding affinity of compound to human adrenergic receptor alpha-1d to that of human adrenergic receptor alpha-1a; format: protein assay
[5] = molecular target: T3, Alpha-1D adrenergic receptor (Homo sapiens, UniProt P25100); test: Compound was evaluated for its binding affinity to COS cell membrane expressing the human Alpha-1D adrenergic receptor; format: cell membranes
T3 sequence (P25100 whole entry): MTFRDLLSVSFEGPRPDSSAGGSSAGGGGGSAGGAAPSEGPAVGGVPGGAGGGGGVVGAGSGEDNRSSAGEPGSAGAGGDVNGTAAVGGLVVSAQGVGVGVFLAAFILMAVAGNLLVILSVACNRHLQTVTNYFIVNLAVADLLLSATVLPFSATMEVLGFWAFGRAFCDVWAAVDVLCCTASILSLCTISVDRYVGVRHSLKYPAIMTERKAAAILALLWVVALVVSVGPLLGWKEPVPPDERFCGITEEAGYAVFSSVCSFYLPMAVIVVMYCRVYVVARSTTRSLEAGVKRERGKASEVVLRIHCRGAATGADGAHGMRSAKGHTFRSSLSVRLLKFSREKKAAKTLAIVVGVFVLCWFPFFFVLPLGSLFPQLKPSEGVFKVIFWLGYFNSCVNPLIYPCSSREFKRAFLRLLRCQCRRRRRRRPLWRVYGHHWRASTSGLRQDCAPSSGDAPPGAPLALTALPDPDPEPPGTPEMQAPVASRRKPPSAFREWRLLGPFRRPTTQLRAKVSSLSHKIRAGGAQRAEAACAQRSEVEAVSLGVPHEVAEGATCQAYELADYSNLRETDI

SMILES: CC(C)Oc1ccccc1N1CCN(Cc2cc(CN3CCCCC3=O)nc(N)n2)CC1
- Ratio [1]: > 127
- Ki [2]: > 10 µM
- Ki [3]: 0.079 µM
- Ratio [4]: > 127
- Ki [5]: > 10 µM

SMILES: CC(C)Oc1ccccc1N1CCN(Cc2cc(CN3CCCCC3=O)on2)CC1
- Ratio [1]: 1170
- Ki [2]: 4.46 µM
- Ki [3]: 0.0038 µM
- Ratio [4]: 72
- Ki [5]: 0.272 µM

SMILES: CC(C)Oc1ccccc1N1CCN(Cc2cc(CN3CCCCC3=O)nn2C)CC1
- Ratio [1]: 308
- Ki [2]: 2.77 µM
- Ki [3]: 0.009 µM
- Ratio [4]: 5
- Ki [5]: 0.044 µM

SMILES: CC(C)Oc1ccccc1N1CCN(Cc2cc(CN3CCCCC3=O)n(C)n2)CC1
- Ratio [1]: 832
- Ki [2]: 3.08 µM
- Ki [3]: 0.0037 µM
- Ratio [4]: 14
- Ki [5]: 0.052 µM

SMILES: CC(C)Oc1ccccc1N1CCN(CC2=NOC(CN3CCCCC3=O)C2)CC1 (stereo not given)
- Ratio [1]: > 112
- Ki [2]: > 10 µM
- Ki [3]: 0.089 µM
- Ratio [4]: 17
- Ki [5]: 1.52 µM

SMILES: CC(C)Oc1ccccc1N1CCN(Cc2cc(CN3CCCCC3=O)n[nH]2)CC1
- Ratio [1]: 1860
- Ki [2]: 3.92 µM
- Ki [3]: 0.0021 µM
- Ratio [4]: 84
- Ki [5]: 0.177 µM
